One data set has as its system MCF7. Kind of data set: Antiproliferative activity against human MCF7 cells assessed as growth inhibition after 5 days by SRB assay. It counts as functional. The following applies: MCF7, 120 h.
Data set [1] concerns MDA-MB-468. Kind of data set: Antiproliferative activity against human MDA-MB-468 cells assessed as growth inhibition after 5 days by SRB assay. It counts as functional. The following applies: MDA-MB-468, 120 h.
A further data set concerns MDA-MB-231. Kind of data set: Antiproliferative activity against human MDA-MB-231 cells assessed as growth inhibition after 5 days by SRB assay. Conditions: MDA-MB-231, 120 h. It counts as functional.
Data set [2] can be described thus: Permeability of the compound at pH 7.4 by PAMPA. It counts as ADME. The following applies: read-out: permeability.
Data set [3] has as its target Serine/threonine-protein kinase PLK3 (Homo sapiens, UniProt Q9H4B4). Kind of data set: Inhibition of PLK3 (unknown origin) by FRET-based homogeneous assay.
In data set [4] the target is T1, Serine/threonine-protein kinase PLK4 (Homo sapiens, UniProt O00444).
T1 sequence (O00444 whole entry): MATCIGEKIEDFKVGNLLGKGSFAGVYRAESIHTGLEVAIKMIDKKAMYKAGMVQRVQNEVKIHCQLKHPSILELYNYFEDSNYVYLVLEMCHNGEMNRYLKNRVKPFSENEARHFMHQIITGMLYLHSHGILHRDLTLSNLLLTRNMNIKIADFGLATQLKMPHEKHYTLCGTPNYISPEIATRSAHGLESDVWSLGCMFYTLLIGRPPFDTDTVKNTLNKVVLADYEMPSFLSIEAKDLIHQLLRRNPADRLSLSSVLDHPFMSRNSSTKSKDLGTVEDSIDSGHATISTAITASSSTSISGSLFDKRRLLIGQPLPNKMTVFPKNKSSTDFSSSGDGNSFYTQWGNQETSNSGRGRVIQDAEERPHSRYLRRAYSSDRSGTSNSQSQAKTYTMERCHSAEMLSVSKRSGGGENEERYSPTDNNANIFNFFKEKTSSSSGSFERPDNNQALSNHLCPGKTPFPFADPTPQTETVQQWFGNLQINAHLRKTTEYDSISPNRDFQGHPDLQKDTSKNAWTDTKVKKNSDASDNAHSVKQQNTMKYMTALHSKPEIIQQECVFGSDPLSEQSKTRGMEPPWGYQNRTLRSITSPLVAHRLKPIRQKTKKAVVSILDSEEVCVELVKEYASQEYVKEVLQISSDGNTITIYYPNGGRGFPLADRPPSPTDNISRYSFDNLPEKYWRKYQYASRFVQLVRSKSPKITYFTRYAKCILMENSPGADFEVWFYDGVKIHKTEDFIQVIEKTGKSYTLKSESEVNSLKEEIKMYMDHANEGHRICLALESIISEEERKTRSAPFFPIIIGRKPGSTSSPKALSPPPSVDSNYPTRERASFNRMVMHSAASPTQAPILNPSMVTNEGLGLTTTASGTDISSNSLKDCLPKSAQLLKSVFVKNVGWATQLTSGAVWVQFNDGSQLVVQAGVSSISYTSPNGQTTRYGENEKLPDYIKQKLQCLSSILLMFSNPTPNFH
The data set is described as follows: Inhibition of N-terminal GST-tagged human PLK4 (1 to 391 amino acids) expressed in Escherichia coli using TMB as substrate after 30 mins by indirect ELISA assay.

The next data set concerns SK-BR-3. The data set is described as follows: Antiproliferative activity against human SKBR3 cells assessed as growth inhibition after 5 days by SRB assay. The format is functional. The following applies: SK-BR-3, 120 h.
In data set [5] the target is Serine/threonine-protein kinase PLK2 (Homo sapiens, UniProt Q9NYY3). The data set is described as follows: Inhibition of PLK2 (unknown origin) by FRET-based homogeneous assay.
Another data set deals with HCC1954. Kind of data set: Antiproliferative activity against human HCC1954 cells assessed as growth inhibition after 5 days by SRB assay. Conditions: HCC1954, 120 h. It counts as functional.
Data set [6] has as its target Serine/threonine-protein kinase PLK1 (Homo sapiens, UniProt P53350). Kind of data set: Inhibition of PLK1 (unknown origin) by FRET-based homogeneous assay.
In data set [7] the test system is MDA-MB-468. The data set is described as follows: Cell cycle arrest in human MDA-MB-468 cells assessed as accumulation of 8N peaks at 0.5 uM after 2 days by FACS analysis. The format is functional.
Data set [8] relates to MDA-MB-468. Kind of data set: Cell cycle arrest in human MDA-MB-468 cells assessed as accumulation of 16N peaks at 0.25 uM after 2 days by FACS analysis. The format is functional.
Data set [9] has as its system MDA-MB-468. Kind of data set: Cell cycle arrest in human MDA-MB-468 cells assessed as accumulation of 8N peaks at 0.25 uM after 2 days by FACS analysis. The format is functional.
For the next data set, the target named is Cytochrome P450 2C19 (Homo sapiens, UniProt P33261). Kind of data set: Inhibition of CYP2C19 (unknown origin) using MFC as substrate after 30 mins by fluorescence assay. It counts as ADME.
Data set [10] deals with MDA-MB-468. The data set is described as follows: Cell cycle arrest in human MDA-MB-468 cells assessed as accumulation at G1 phase at 0.5 uM after 2 days by FACS analysis. It counts as functional.
In a further data set the target is Cytochrome P450 2C9 (Homo sapiens, UniProt P11712). Kind of data set: Inhibition of CYP2C9 (unknown origin) using MFC as substrate after 45 mins by fluorescence assay. It counts as ADME.
For data set [11], the system named is MDA-MB-468. Kind of data set: Cell cycle arrest in human MDA-MB-468 cells assessed as accumulation at G1 phase at 0.25 uM after 2 days by FACS analysis. It counts as functional.
Another data set deals with Cytochrome P450 3A4 (Homo sapiens, UniProt P08684). Kind of data set: Inhibition of CYP3A4 (unknown origin) after 10 mins by fluorescence assay. It counts as ADME.
Another data set deals with T2, Cytochrome P450 1A2 (Homo sapiens, UniProt P05177).
T2 sequence (P05177 whole entry): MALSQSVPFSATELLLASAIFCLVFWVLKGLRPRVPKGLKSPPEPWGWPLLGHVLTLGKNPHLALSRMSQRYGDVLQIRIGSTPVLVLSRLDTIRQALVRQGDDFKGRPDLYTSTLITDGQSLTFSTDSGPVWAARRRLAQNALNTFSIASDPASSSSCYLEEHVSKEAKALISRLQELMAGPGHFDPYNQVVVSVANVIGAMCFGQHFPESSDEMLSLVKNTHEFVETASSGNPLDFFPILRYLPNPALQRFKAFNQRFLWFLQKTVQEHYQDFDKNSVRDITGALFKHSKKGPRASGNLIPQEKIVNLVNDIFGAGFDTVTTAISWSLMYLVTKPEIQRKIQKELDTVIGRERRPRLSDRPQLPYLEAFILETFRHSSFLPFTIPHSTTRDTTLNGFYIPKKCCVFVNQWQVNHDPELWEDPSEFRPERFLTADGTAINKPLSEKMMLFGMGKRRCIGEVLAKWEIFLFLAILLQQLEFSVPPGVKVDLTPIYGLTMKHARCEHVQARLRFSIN
Kind of data set: Inhibition of CYP1A2 (unknown origin) using CEC as substrate after 15 mins by fluorescence assay. The format is ADME.

A further data set addresses Cytochrome P450 2D6 (Homo sapiens, UniProt P10635). Kind of data set: Inhibition of CYP2D6 (unknown origin) using AMMC as substrate after 30 mins by fluorescence assay. The format is ADME.
Data set [12] concerns MDA-MB-468. The data set is described as follows: Cell cycle arrest in human MDA-MB-468 cells assessed as accumulation of 16N peaks at 0.5 uM after 2 days by FACS analysis. It counts as functional.
For data set [13], the system named is MDA-MB-468. The data set is described as follows: Cell cycle arrest in human MDA-MB-468 cells assessed as accumulation at G1 phase at 1 uM after 2 days by FACS analysis. The format is functional.
Data set [14] has as its system MDA-MB-468. Kind of data set: Cell cycle arrest in human MDA-MB-468 cells assessed as accumulation of 16N peaks at 1 uM after 2 days by FACS analysis. It counts as functional.
The subject of data set [15] is MDA-MB-468. Kind of data set: Cell cycle arrest in human MDA-MB-468 cells assessed as accumulation of 8N peaks at 1 uM after 2 days by FACS analysis. The format is functional.
The target of data set [16] is T1, Serine/threonine-protein kinase PLK4. The data set is described as follows: Inhibition of human PLK4.

Experimental findings from ChEMBL document CHEMBL2406977, “The discovery of PLK4 inhibitors: (E)-3-((1H-Indazol-6-yl)methylene)indolin-2-ones as novel antiproliferative agents” (J Med Chem, 2013) are described below.

Serine/threonine-protein kinase PLK2, sequence (Q9NYY3 whole entry): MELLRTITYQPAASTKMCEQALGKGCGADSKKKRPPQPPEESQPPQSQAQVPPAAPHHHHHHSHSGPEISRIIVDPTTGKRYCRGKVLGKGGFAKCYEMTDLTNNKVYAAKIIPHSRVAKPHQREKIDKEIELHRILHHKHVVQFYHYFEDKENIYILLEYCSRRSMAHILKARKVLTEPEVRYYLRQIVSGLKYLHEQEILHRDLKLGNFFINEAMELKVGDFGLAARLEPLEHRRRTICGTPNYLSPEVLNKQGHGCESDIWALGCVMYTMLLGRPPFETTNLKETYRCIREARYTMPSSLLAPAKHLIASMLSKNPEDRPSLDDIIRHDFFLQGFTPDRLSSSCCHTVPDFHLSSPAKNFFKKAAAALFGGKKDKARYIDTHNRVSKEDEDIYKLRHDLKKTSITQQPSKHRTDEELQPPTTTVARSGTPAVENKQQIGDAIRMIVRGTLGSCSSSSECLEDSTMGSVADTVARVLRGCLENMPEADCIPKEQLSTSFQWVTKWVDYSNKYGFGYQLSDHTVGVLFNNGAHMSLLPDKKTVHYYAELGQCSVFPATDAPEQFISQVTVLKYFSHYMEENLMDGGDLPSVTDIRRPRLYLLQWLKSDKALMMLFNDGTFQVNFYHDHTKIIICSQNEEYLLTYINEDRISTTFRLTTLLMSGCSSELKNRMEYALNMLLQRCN
Cytochrome P450 2C9, sequence (P11712 whole entry): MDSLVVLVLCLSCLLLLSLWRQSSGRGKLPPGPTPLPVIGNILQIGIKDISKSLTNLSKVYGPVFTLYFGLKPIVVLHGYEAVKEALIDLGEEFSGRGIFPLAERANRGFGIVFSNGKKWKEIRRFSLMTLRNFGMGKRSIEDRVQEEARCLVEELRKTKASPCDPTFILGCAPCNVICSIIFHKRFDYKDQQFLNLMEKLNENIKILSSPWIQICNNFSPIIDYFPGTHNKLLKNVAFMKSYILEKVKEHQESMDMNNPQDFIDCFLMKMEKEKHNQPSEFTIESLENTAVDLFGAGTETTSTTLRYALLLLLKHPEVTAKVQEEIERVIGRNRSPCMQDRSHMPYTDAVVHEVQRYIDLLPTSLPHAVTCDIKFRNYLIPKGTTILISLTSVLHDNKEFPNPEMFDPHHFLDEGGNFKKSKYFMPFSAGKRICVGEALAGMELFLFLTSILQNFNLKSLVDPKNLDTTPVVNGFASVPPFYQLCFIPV
Cytochrome P450 2C19, sequence (P33261 whole entry): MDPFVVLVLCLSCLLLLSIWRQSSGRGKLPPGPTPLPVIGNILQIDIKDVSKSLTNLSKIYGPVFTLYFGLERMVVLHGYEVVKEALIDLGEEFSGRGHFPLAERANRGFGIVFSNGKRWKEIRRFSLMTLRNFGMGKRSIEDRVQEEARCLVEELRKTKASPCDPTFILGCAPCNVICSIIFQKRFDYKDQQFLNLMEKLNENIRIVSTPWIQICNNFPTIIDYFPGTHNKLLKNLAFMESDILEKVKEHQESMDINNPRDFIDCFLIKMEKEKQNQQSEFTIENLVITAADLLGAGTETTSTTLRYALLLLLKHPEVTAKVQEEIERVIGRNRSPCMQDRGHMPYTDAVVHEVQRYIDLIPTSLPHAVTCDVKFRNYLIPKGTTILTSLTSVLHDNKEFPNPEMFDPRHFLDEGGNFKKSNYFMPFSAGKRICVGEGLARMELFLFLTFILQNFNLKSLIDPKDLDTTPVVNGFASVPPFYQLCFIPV
Cytochrome P450 2D6, sequence (P10635 whole entry): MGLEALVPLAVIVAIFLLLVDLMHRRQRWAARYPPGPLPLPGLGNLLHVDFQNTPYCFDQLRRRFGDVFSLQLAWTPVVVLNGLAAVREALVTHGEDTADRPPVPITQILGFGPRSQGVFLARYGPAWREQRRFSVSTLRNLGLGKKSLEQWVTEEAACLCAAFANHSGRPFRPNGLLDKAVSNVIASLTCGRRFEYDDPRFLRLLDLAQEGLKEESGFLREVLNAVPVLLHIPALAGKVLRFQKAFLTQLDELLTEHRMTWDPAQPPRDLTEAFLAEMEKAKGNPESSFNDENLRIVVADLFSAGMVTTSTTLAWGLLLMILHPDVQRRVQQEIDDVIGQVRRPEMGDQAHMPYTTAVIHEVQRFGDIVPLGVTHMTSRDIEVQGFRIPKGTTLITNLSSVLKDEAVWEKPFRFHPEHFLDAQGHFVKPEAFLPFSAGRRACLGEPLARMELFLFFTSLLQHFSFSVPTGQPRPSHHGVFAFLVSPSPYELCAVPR
Serine/threonine-protein kinase PLK1, sequence (P53350 whole entry): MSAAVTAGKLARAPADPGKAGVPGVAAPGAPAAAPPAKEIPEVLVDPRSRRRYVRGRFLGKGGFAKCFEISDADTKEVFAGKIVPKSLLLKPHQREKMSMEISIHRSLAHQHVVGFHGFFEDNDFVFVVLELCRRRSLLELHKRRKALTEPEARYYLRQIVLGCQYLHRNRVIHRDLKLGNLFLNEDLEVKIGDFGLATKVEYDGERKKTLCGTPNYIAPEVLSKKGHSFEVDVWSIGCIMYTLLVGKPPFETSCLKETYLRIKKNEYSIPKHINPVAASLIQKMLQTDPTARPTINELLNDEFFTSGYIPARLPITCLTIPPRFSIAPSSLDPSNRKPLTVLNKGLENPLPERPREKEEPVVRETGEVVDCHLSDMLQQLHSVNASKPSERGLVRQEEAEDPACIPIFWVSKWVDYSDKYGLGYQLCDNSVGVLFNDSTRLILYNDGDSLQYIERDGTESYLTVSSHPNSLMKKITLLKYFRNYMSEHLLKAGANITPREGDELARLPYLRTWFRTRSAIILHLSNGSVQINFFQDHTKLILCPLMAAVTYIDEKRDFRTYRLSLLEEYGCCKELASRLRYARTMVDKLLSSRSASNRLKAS
Cytochrome P450 3A4, sequence (P08684 whole entry): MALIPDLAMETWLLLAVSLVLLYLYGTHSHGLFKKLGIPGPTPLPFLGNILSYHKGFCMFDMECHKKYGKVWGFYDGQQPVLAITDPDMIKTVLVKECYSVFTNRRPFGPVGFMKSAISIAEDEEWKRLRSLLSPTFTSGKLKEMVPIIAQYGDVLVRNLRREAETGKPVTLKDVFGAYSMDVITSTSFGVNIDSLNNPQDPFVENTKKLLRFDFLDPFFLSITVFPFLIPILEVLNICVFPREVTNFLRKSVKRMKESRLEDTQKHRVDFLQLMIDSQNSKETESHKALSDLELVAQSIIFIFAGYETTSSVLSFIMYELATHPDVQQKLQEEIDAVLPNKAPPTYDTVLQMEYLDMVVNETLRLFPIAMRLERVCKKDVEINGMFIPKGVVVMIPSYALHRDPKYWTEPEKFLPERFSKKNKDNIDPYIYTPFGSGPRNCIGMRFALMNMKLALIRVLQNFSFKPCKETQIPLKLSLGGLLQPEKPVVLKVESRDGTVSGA
Serine/threonine-protein kinase PLK3, sequence (Q9H4B4 whole entry): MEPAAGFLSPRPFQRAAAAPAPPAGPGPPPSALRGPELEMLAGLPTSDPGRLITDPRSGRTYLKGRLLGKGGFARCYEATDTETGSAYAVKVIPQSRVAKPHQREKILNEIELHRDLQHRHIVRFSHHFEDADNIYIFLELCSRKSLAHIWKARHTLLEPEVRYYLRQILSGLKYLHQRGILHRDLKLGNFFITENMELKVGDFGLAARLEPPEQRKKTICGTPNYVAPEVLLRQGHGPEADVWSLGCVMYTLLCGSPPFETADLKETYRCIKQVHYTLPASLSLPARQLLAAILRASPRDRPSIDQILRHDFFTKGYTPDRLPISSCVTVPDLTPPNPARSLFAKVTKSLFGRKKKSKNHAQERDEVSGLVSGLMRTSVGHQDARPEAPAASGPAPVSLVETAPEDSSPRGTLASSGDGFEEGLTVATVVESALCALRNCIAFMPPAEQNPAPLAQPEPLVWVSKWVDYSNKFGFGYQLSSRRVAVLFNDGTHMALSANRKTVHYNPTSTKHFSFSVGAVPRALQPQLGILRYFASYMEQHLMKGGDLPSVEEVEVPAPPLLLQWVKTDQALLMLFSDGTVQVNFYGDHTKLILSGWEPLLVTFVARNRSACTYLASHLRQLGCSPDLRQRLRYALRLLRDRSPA

Consider `O=C1Nc2ccccc2/C1=C\c1ccc2c(/C=C/c3ccc(C(=O)O)cc3)n[nH]c2c1`, for which the GI50 is 6800 nM in the data set on MCF7; 800 nM in the data set with MDA-MB-468 [1]; over 50000 nM with MDA-MB-231; 16000 nM with SK-BR-3; 2000 nM in the data set with HCC1954. The Papp in data set [2] was found to be 2.1 ×10⁻⁶ cm/s. Moreover, the 50% inhibitory concentration (IC50) in data set [3] was over 10000 nM; in data set [4], 0.82 nM; in data set [5], over 10000 nM; in data set [6], over 10000 nM.
Regarding `O=C1Nc2ccccc2/C1=C\c1ccc2c(/C=C/c3ccncc3)n[nH]c2c1`, the Activity was 34.3% in the data set on MDA-MB-468 [7]; 1.7% in the data set with MDA-MB-468 [8]; 11.85% in the data set on MDA-MB-468 [9]; 20.8% in the data set with MDA-MB-468 [10]; 11.2% in the data set on MDA-MB-468 [11]; 6% in the data set on MDA-MB-468 [12]. For the same compound, the Activity with MDA-MB-468 [13] was 24.8%; with MDA-MB-468 [14], 5.2%; in the data set with MDA-MB-468 [15], 32.5%. Also, the IC50 at Cytochrome P450 2C19 was 130 nM; against Cytochrome P450 2C9 it was 20 nM; against Cytochrome P450 3A4, 2700 nM; against Cytochrome P450 1A2, over 10000 nM; against Cytochrome P450 2D6 it was over 10000 nM; in [3], over 10000 nM. For the same compound, the half-maximal inhibitory concentration (IC50) in [4] was 5.4 nM; in [5] it was over 10000 nM; in data set [6], over 10000 nM. The concentration for 50% growth inhibition (GI50) with MCF7 was determined as 160 nM; in the data set on MDA-MB-468 [1], 310 nM; in the data set on MDA-MB-231 it was 19000 nM; in the data set with SK-BR-3, 25000 nM; in the data set on HCC1954 it was 930 nM. Further, the Papp in data set [2] stood at 197 ×10⁻⁶ cm/s.
`CN(C)Cc1ccc(/C=C/c2n[nH]c3cc(/C=C4/C(=O)Nc5ccccc54)ccc23)cc1`: the IC50 is 1000 nM on Cytochrome P450 2C19; 1300 nM on Cytochrome P450 2C9; 10000 nM against Cytochrome P450 3A4; over 10000 nM at Cytochrome P450 1A2; 9000 nM on Cytochrome P450 2D6; over 10000 nM in [3]. In addition, the IC50 was 2 nM in data set [4], over 10000 nM in data set [5] and over 10000 nM in data set [6]. Besides, the concentration for 50% growth inhibition (GI50) was 10 nM in the data set with MCF7; 10 nM in the data set on MDA-MB-468 [1]; 2 nM in the data set with MDA-MB-231; 1900 nM in the data set with SK-BR-3; 480 nM in the data set on HCC1954. Besides, the Papp in data set [2] was found to be 276 ×10⁻⁶ cm/s.
Consider `CN1CCN(c2ccc(/C=C/c3n[nH]c4cc(/C=C5/C(=O)Nc6ccccc65)ccc34)cn2)CC1`, for which the IC50 at Cytochrome P450 2C19 is 440 nM; on Cytochrome P450 2C9 it was 900 nM; against Cytochrome P450 3A4 it was 800 nM; against Cytochrome P450 1A2 it was 10000 nM; against Cytochrome P450 2D6, 10000 nM; in data set [3], over 10000 nM. The half-inhibitory concentration (IC50) was 1.4 nM in data set [4], over 10000 nM in [5] and over 10000 nM in data set [6]. Moreover, the 50% growth inhibitory concentration (GI50) was 20 nM in the data set on MCF7; 20 nM in the data set with MDA-MB-468 [1]; under 10 nM in the data set with MDA-MB-231; 1100 nM with SK-BR-3; 370 nM with HCC1954. In addition, in data set [2], the Papp amounted to 335 ×10⁻⁶ cm/s.
For the compound `COCCOc1ccc2cc1OCC(=O)N(C)CCCN(C)Cc1c[nH]c3ncnc(c13)N2`, the affinity in data set [16], expressed as Ki, was 25 nM.
The same measure, in the same setting: the figure for `COc1cc2c(cc1F)C(c1ccccc1Cl)=Nc1c(n[nH]c1C)N2` [RG-1530] is 11 nM.
